These results are taken from patent US20250222011A1, “DRUG TARGET FOR INHIBITING TUMOR, USE, AND ORAL DRUG” (CHI BIOTECH CO., LTD., priority 2024, published 2025).

Assay in all cases: CESTA-WB (cellular thermal shift assay-Western blotting), H1299 cell lysate
Common to all, as to format: binding
Common to all, as to settings: ATCA 10 nM to 10 mM, 55° C. for 3 min, FIG. 1
For orientation: Immunoblotting shows a protein as a band on a membrane.

In assay [1] the target is T1, EEF2 (Homo sapiens, UniProt P13639).
T1 construct: a cell lysate was collected and centrifuged at 17,000 g; endogenous in cells; host or cells: H1299
The procedure: (§1) CESTA-WB experiment: H1299 cells were plated and cultured in a 15 cm dish, and when a cell density reached about 90% to 100%, the medium was aspirated; the cells were washed twice with PBS, and 2 mL of Lysis Buffer (RB Buffer, 10% N-Dodecyl-β-D-maltoside, and 1× protease inhibitor) was added to each dish and placed flatly on ice to allow lysis for 30 min, and a cell lysate was collected and centrifuged at 17,000 g, 4° C. for 10 min; a resulting supernatant was quantified using a BCA kit. 45 μL of a whole protein was added in a PCR tube, ATCA was added to final concentrations of 10 mM, 1 mM, 100 μM, 10 μM, 1 μM, 100 nM, and 10 nM, respectively, and allowed to stand at 25° C. for 30 min to allow the ATCA to fully interact with the whole protein; while another two tubes without ATCA were taken as controls. The experimental group was treated at 55° C. for 3 min, while one tube in the control group was treated at 37° C. for 3 min, and the other tube was treated at 50° C. for 3 min; centrifugation was conducted at 17,000×g for 10 min at 4° C. to remove denatured proteins. The supernatant was transferred into a new PCR tube, and 5 μg of the supernatant was added into 5×SDS Loading Buffer to allow denaturation in a 100° C. water bath; the Western Blotting was conducted to quantify EEF2, EIF2S1, B-actin, and Vinculin proteins.
(§2) Western Blotting experiment: the sample and molecular weight standard of pre-stained protein were loaded onto an SDS-PAGE gel (10 cmx 10 cm) to allow electrophoresis at 100 V for 40 min. The proteins in SDS-PAGE were transferred to nitrocellulose membrane at 100 V, 230 mA within 1 h. After transfer, the nitrocellulose membrane was washed with 25 mL of TBS for 5 min at room temperature. The nitrocellulose membrane was placed in 25 mL of blocking buffer (TBST, 5% skim milk) and incubated at room temperature for 1 h. The membrane was washed three times with 15 mL TBST, 5 min each. […]

The target in assay [2] is T2, EIF2S1 (Homo sapiens, UniProt P05198).
T2 construct: endogenous in cells; host or cells: H1299
The procedure: as §1, §2

The target in assay [3] is T3, Vinculin (Homo sapiens, UniProt P18206).
T3 construct: endogenous in cells; host or cells: H1299
T3 sequence (P18206 1-1066 isoform P18206-2): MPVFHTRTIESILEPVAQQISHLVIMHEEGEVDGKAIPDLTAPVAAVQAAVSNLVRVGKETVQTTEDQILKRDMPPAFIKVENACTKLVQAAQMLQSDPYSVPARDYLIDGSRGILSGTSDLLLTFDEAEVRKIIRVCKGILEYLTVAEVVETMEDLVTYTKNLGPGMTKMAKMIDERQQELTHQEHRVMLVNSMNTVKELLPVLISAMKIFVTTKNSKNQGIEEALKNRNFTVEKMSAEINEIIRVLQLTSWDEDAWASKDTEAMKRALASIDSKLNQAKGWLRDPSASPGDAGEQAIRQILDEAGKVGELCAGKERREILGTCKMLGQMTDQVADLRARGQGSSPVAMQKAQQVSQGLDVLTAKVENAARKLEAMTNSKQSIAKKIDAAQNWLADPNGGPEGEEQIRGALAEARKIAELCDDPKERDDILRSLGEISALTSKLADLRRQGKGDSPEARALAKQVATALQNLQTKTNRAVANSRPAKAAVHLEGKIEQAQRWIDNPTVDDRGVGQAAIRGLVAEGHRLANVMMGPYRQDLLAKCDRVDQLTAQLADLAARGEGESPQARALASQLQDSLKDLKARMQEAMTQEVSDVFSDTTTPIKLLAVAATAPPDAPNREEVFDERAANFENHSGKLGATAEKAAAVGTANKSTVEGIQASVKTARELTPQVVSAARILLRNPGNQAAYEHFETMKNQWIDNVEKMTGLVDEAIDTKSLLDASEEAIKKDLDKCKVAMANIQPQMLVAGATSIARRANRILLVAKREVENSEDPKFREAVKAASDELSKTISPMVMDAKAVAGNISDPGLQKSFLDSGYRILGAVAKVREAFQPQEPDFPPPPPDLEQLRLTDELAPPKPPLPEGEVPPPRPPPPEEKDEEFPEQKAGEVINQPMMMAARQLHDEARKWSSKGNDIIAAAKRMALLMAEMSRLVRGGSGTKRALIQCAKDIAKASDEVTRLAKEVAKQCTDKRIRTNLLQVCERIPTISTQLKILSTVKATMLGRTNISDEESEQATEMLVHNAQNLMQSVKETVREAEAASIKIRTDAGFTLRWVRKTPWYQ
As to the method:
as §1, §2

T2 sequence (P05198 whole entry): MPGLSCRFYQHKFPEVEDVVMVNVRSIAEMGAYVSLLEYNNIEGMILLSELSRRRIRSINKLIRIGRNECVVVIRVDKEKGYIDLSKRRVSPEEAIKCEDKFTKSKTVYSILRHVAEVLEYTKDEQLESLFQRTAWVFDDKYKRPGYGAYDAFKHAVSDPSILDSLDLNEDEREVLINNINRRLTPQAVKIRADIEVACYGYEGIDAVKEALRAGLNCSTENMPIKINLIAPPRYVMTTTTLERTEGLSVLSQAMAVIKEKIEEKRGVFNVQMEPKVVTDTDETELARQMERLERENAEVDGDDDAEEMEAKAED

Regarding `O=C(O)C1=CC(=C(c2ccc(O)c(C(=O)O)c2)c2ccc(O)c(C(=O)O)c2)C=CC1=O` [ATCA, aurintricarboxylic acid], in assay [1], the “binding to non-target protein EEF2” value is listed as “did not bind”. Moreover, the “binding to target protein EIF2S1” value in assay [2] was “binds”. For the same molecule, in assay [3], the “binding to non-target protein Vinculin” value was “did not bind”.
